Patent publication US8178077B2, “Drug development target protein and target gene, and method of screening” (Reverse Proteomics Research Institute Co., Ltd., priority 2004, dated 2012)

Biological target: T1, FLJ39196 clone-derived protein (human neurocalcin δ) (Homo sapiens, UniProt P61601)
T1 construct: A human full-length cDNA clone was expressed as a protein with an N-terminal His tag; His tag (N); made in house; host or cells: Escherichia coli BL21star(DE3)pLysS (pDEST17 Gateway expression plasmid)
Assay: SEC/MS interaction analysis (size exclusion spin column and mass analysis) with FLJ39196 clone-derived protein
Assay type: binding
Description: To analyze the interactions between commonly used drugs and proteins expressed from human full-length cDNA clones while keeping both the proteins and the compounds in non-modified, non-immobilized state, size exclusion chromatography (SEC) and mass analysis were used in combination (FIGS. 1, 2). The specific procedures are shown below.
The compound-protein mixture prepared in step 1 was subjected to chromatography using an SEC column, the compound and the protein were separated by SEC, and the compound that interacted with the bound compound or protein contained in the protein fraction was analyzed using a mass analyzer.
Protein concentrations were measured using BCA Protein Assay (PIERCE), in consideration of the purity calculated by SDS-PAGE.
Mass analysis was performed using LCQ DECA XP (Thermoelectron) or Q-TOFmicro (Micromass), equipped with an ESI probe. The LC pump used was Agilent 1100 (Yokogawa Analytical Systems), and the autosampler used was HTC-PAL (CTC Analytics) equipped with a cooling stacker.
In the SEC method using 384-well spin columns, Unifilter 100 (Whatman), packed with 10 μL (dry volume) of Bio-Gel P6 (BIO-RAD) and swollen with milliQ water, was used as the SEC column. 13.3 μL of a protein-free reference standard or a 25 μM protein standard and 0.7 μL of a multiplied liquid comprising 25 μM of each pharmaceutical compound (5% DMSO aqueous solution) were mixed; 9 μL of this mixture was aliquoted into the SEC spin columns. The SEC spin column was mounted on an acetonitrile-aliquoted 384-well U-bottom plate and centrifuged; the SEC spin column filtrate, which is a protein fraction, was retrieved in 50% acetonitrile. The protein precipitate produced by the acetonitrile was removed via centrifugation and filtration for deproteinization; the resulting filtrate was concentrated by centrifugation and re-dissolved in 10 μL of 50% methanol to obtain a mass analysis sample. The mobile phase supplied to the mass analyzer was 0.1% formic acid/50% methanol solution in the positive ion mode, and 0.1% ammonia/50% methanol solution in the negative ion mode; these mobile phases were used at a flow rate of 40 μL/min. 2-μL of mass analysis samples were injected using an autosampler at 2-minute intervals; the mass spectral intensity of the compound was measured to obtain the spectral intensity of the pharmaceutical compound contained in the SEC spin column filtrate (protein fraction eluted from SEC).

[1] = protein 0 μM (protein-free reference), compound 1 μM
[2] = protein 0 μM (protein-free reference), compound 10 μM
[3] = protein 0 μM (protein-free reference), compound 100 μM
[4] = protein 0 μM (protein-free reference), compound 250 μM
[5] = protein 23.75 μM, compound 1 μM
[6] = protein 23.75 μM, compound 10 μM
[7] = protein 23.75 μM, compound 100 μM
[8] = protein 23.75 μM, compound 250 μM
[9] = protein 47.5 μM, compound 10 μM
[10] = protein 47.5 μM, compound 100 μM
[11] = protein 47.5 μM, compound 250 μM

SMILES	spectral intensity of the compound in the SEC spin column filtrate (protein fraction) [1]	spectral intensity of the compound in the SEC spin column filtrate (protein fraction) [2]	spectral intensity of the compound in the SEC spin column filtrate (protein fraction) [3]	spectral intensity of the compound in the SEC spin column filtrate (protein fraction) [4]	spectral intensity of the compound in the SEC spin column filtrate (protein fraction) [5]	spectral intensity of the compound in the SEC spin column filtrate (protein fraction) [6]	spectral intensity of the compound in the SEC spin column filtrate (protein fraction) [7]	spectral intensity of the compound in the SEC spin column filtrate (protein fraction) [8]	spectral intensity of the compound in the SEC spin column filtrate (protein fraction) (protein 47.5 μM, compound 1 μM)	spectral intensity of the compound in the SEC spin column filtrate (protein fraction) [9]	spectral intensity of the compound in the SEC spin column filtrate (protein fraction) [10]	spectral intensity of the compound in the SEC spin column filtrate (protein fraction) [11]
CCOC(=O)Oc1c(OC)cc(C(=O)O[C@@H]2C[C@@H]3CN4CCc5c([nH]c6cc(OC)ccc56)[C@H]4C[C@@H]3[C@H](C(=O)OC)[C@H]2OC)cc1OC [Syrosingopine]	38126829	47209784	41362697	38512184	63594361	101347281	465474678	596250311	70443152	105524442	897067633	1499127775
Clc1ccc(C(OCCN2CCCCC2)c2ccccc2)cc1 (stereo not drawn) [chloperastine]	2920008	13165487	276180260	803023959	2972794	9288224	218420294	773924506	4085344	18612563	338617522	1411536255
CC(C)/N=c1\cc2n(-c3ccc(Cl)cc3)c3ccccc3nc-2cc1Nc1ccc(Cl)cc1 [clofazimine]	1592610	3306068	1781607	1742291	2041846	15886830	138678443	380425425	2399851	57730302	312686548	411373516
CCc1cc2c(s1)N(C)C(=O)CN=C2c1ccccc1Cl [clotiazepam]	8089543	19826757	251469420	633414607	8254340	25038949	283452799	759706893	9022620	60448900	657940514	1089985810
